# Measurements from US20260098030A1, “NEGATIVE ALLOSTERIC MODULATORS OF METABOTROPIC GLUTAMATE RECEPTOR 2” (Vanderbilt University, priority 2022, published 2026).
# Biological target: T1, rat mGlu2 (Rattus norvegicus, UniProt P31421)
# T1 construct: expressed in transfected cells; host or cells: HEK-293 cells stably co-expressing GIRK channels
# Experiment: mGlu GIRK cell-based thallium flux assay, rat mGlu2
# Settings: HEK-293 cells co-expressing rat mGlu2 and GIRK, EC80 glutamate
# Protocol: Human embryonic kidney (HEK-293) cell lines stably co-expressing human or rat mGlu2 and G protein-coupled inwardly rectifying potassium (GIRK) channels, or human mGlu3 and GIRK, were used for in vitro evaluation of compound activity in thallium flux assay using a fluorescent thallium indicator dye.
# The day before the assay, GIRK cells co-expressing human mGlu3, human or rat mGlu2, as described above, were plated in black-walled, clear-bottomed, amine-coated 384-well plates at a density of 15,000 cells/20 μL/well in the assay medium (glutamine-depleted basal DMEM supplemented with 10% dialyzed FBS, 20 mM HEPES, 1 mM sodium pyruvate). Cells were incubated at 37° C. in the presence of 5% CO2. The next day, assay buffer (Hanks balanced salt solution, 20 mM HEPES, 4.16 mM sodium bicarbonate, pH 7.2) was prepared to dilute compounds and Thallos AM fluorescent dye solution. The 2× Thallos dye solution (final concentration 0.34 μM to the cells) was prepared by mixing the dye stock (2.97 mM in DMSO) to 1:1 with 10% pluronic acid before adding to the assay buffer. Cells were washed with assay buffer using a microplate washer to remove the medium, resulting in 20 μL of buffer remaining in each well. Immediately, 20 μL of 2× Thallos dye solution was added to cells, and incubated for one hour at 25° C. During the cell dye loading incubation period, a 10-point concentration serial dilution of compound was created from a 10 mM DMSO compound stock by performing a 1:3 serial dilution in DMSO using the Bravo liquid handler. The 2× compound plate was generated by transferring 0.24 μL of the diluted compound in each well to a daughter plate using an Echo acoustic liquid handler. This is further diluted in 40 μL assay buffer, resulting in a range from 30 μM to 1.5 nM final concentration in the assay. The agonist plate (5×) was prepared to include EC80 glutamate concentration (a concentration to elicit 80% of a maximally effective glutamate concentration) in thallium buffer (125 mM […], 1 mM magnesium sulfate, 1.8 mM calcium sulfate, 5 mM glucose, 10 mM HEPES, pH 7.2, 12.5 mM thallium sulfate).
# After dye-loading, cell plates were washed with assay buffer to remove excess extracellular dye using a microplate washer, resulting in 20 μL of buffer remaining in each well. After a ten-minute equilibration period, cell, compound and agonist plates were loaded into a Hamamatsu μCell kinetic imaging plate reader equipped with liquid handler to monitor fluorescence changes at 480 nm excitation and 540 nm emission settings. Briefly, after collection of baseline fluorescence, 20 μL of compound was added and incubated for two minutes and twenty seconds. This is immediately followed by adding 10 μL of glutamate-thallium buffer to the wells containing compound. The fluorescent signal was monitored an additional 2.5 minutes after the glutamate addition. Multiple reference wells containing no compound received either no glutamate (for a baseline reference), EC80 glutamate, or ECmax glutamate (for normalization to maximum response). Fluorescence was measured throughout the experiment at a frequency of 1 measurement per every 2 seconds before the glutamate addition and a frequency of 1 measurement per every 1 second after the glutamate addition. Each compound concentration series occurred one time in each plate, and replicates from two or three plates were used in each experimental run. Thallium solutions were handled and disposed of according to guidelines from the Vanderbilt University Chemical Safety department.
# Data were normalized using a static ratio function (F/F0) by dividing every fluorescent measurement by the initial fluorescent value for the corresponding well. The increase in signal resulting from the glutamate/thallium addition of the second add was measured by determining the slope from 3 seconds to 13 seconds after the addition. […]
# T1 sequence (P31421 19-872): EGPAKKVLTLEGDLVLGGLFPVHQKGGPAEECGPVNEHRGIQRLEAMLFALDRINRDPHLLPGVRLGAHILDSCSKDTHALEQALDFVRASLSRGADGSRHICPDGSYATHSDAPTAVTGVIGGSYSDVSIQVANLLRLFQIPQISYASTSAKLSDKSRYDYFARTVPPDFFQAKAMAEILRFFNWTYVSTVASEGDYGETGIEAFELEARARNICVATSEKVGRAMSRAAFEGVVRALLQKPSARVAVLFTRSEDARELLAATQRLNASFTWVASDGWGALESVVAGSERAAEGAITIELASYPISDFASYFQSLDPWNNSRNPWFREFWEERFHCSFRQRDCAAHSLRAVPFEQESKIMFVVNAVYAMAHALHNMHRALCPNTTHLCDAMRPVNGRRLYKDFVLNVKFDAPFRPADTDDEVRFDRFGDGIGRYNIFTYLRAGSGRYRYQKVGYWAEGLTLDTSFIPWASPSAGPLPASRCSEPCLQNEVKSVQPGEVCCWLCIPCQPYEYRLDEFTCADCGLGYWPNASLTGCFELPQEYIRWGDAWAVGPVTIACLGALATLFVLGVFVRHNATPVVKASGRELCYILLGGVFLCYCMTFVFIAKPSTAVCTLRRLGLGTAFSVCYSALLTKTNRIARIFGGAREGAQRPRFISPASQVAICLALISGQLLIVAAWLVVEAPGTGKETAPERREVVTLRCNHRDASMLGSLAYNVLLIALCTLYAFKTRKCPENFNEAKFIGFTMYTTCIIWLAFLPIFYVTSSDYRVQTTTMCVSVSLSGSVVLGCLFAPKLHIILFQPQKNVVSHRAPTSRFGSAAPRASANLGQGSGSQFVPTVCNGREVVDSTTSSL
row,SMILES,IC50 [µM]
1,"CC(C)(O)c1ccc(-c2cc3c(cc2-c2ccc(F)cc2)C(=O)NC3)cn1 [Compound 50, 6-(4-fluorophenyl)-5-(6-(2-hydroxypropan-2-yl)pyridin-3-yl)isoindolin-1-one]",> 10
2,"Cc1c(-c2cc3c(cc2-c2ccc(F)cc2)C(=O)NC3)cc(C#N)n1C [Compound 53, 4-(6-(4-fluorophenyl)-1-oxoisoindolin-5-yl)-1,5-dimethyl-1H-pyrrole-2-carbonitrile]",> 10
3,"COC1CC=C(c2cc3c(cc2-c2ccc(F)cc2)C(=O)NC3)CC1 (stereo not drawn) [Compound 54, 6-(4-fluorophenyl)-5-(4-methoxycyclohex-1-en-1-yl)isoindolin-1-one]",> 10
4,"O=C1NCc2cc(C3=CCOCC3)c(-c3ccc(F)cc3)cc21 [Compound 55, 5-(3,6-dihydro-2H-pyran-4-yl)-6-(4-fluorophenyl)isoindolin-1-one]",> 10
5,"O=C1NCc2cc(C3=CCN(Cc4ccccc4)CC3)c(-c3ccc(F)cc3)cc21 [Compound 56, 5-(1-benzyl-1,2,3,6-tetrahydropyridin-4-yl)-6-(4-fluorophenyl)isoindolin-1-one]",> 10
6,"CN1CCC=C(c2cc3c(cc2-c2ccc(F)cc2)C(=O)NC3)C1 [Compound 57, 6-(4-fluorophenyl)-5-(1-methyl-1,2,5,6-tetrahydropyridin-3-yl)isoindolin-1-one]",> 10
7,"CN1CC=C(c2cc3c(cc2-c2ccc(F)cc2)C(=O)NC3)CC1 [Compound 58, 6-(4-fluorophenyl)-5-(1-methyl-1,2,3,6-tetrahydropyridin-4-yl)isoindolin-1-one]",> 10
8,"CC1(C)C=C(c2cc3c(cc2-c2ccc(F)cc2)C(=O)NC3)CC(C)(C)N1 [Compound 59, 6-(4-fluorophenyl)-5-(2,2,6,6-tetramethyl-1,2,3,6-tetrahydropyridin-4-yl)isoindolin-1-one]",> 10
9,"O=C1NCc2cc(C3=CCNCC3)c(-c3ccc(F)cc3)cc21 [Compound 60, 6-(4-fluorophenyl)-5-(1,2,3,6-tetrahydropyridin-4-yl)isoindolin-1-one]",> 10
10,"O=C1NCc2cc(C3=CCCNC3)c(-c3ccc(F)cc3)cc21 [Compound 61, 6-(4-fluorophenyl)-5-(1,2,5,6-tetrahydropyridin-3-yl)isoindolin-1-one]",> 10
11,"CC1C=C(c2cc3c(cc2-c2ccc(F)cc2)C(=O)NC3)CC(C)N1 (stereo not drawn) [Compound 62, 5-(2,6-dimethyl-1,2,3,6-tetrahydropyridin-4-yl)-6-(4-fluorophenyl)isoindolin-1-one]",> 10
12,"O=C1NCc2cc(C3CCCCC3)c(-c3ccc(F)cc3)cc21 [Compound 63, 5-cyclohexyl-6-(4-fluorophenyl)isoindolin-1-one]",2.62
13,"CN1CCCC(c2cc3c(cc2-c2ccc(F)cc2)C(=O)NC3)C1 (stereo not drawn) [Compound 65, 6-(4-fluorophenyl)-5-(1-methylpiperidin-3-yl)isoindolin-1-one]",> 10
14,"CN1CCC(c2cc3c(cc2-c2ccc(F)cc2)C(=O)NC3)CC1 [Compound 66, 6-(4-fluorophenyl)-5-(1-methylpiperidin-4-yl)isoindolin-1-one]",> 10
15,"O=C1NCc2cc(C3CCNCC3)c(-c3ccc(F)cc3)cc21 [Compound 67, 6-(4-fluorophenyl)-5-(piperidin-4-yl)isoindolin-1-one]",> 10
16,"CC1CC(c2cc3c(cc2-c2ccc(F)cc2)C(=O)NC3)CC(C)N1 (stereo not drawn) [Compound 68, 5-(2,6-dimethylpiperidin-4-yl)-6-(4-fluorophenyl)isoindolin-1-one]",> 10
17,"O=C1NCc2cc(-c3ccc(C4CC4)nc3)c(-c3ccc(F)cc3F)cc21 [Compound 70, 5-(6-cyclopropylpyridin-3-yl)-6-(2,4-difluorophenyl)isoindolin-1-one]",1.98
18,"CN(C)c1ncccc1-c1cc2c(cc1-c1ccc(F)cc1F)C(=O)NC2 [Compound 71, 6-(2,4-difluorophenyl)-5-(2-(dimethylamino)pyridin-3-yl)isoindolin-1-one]",5.1
